For assay [1], the system named is U937 monocytes adhering to BAECs. The assay can be described thus: Monocyte adhesion assay. As to conditions: 5 hours. Format: cell-based, bovine. The method, then: BAECs were cultured in 6-well plates and then treated with TNF-α (10 ng/ml, 5 hours) or hesperetin (10 μM, 5 hours). In some experiments, hesperetin was added 1 hour before treating cells with TNF-α. U937 monocytes were grown in DMEM medium containing 10% FBS in a culture flask. U937 monocytes were labeled for 15 min with 5 μM calcein-AM (Molecular Probes, Inc.). Labeled U937 cells (6×10^5 cells) were then incubated for 30 minutes at 37° C. with confluent BAECs pre-treated with hesperetin and/or TNF-α. Co-cultured cells were washed three times with PBS and then images of monocytes adhering to BAECs were obtained with an Olympus IX81 inverted microscope with attached CCD camera (Retiga Exi, Burnaby, BC, Canada) using appropriate filters. Images were captured using IPLab™ Software (Scanalytics, Inc., Fairfax, Va.).

The test system of assay [2] is bovine aortic endothelial cells (BAEC). The assay can be described thus: Immunoblotting of phospho-AMPK, phospho-Akt, phospho-eNOS and phospho-Src in BAEC. Format: cell-based. How it is done: Bovine aortic endothelial cells (BAEC) in primary culture (Cell Applications, San Diego, Calif.) were grown in EBM (Endothelial Basal Medium) containing EGM-MV supplements (Endothelial Growth Medium-Micro Vascular; Cambrex, Walkersville, Md.) and used between passages 3 and 5 as previously described (Formoso et al., Mol Endocrinol, 20:1153-63, 2006). BAECs were grown in 60 mm dishes, serum-starved overnight, and then treated with hesperetin (10 μM) for varying durations or for 10 minutes at different concentrations. In some experiments, Wortmannin (100 nM), or Compound C (5 μM) was added to cells 1 hour before treating with hesperetin. Cell lysates were prepared using 120 μl of lysis buffer (100 mM NaCl, 20 mM Hepes, pH 7.9, 1% Triton X-100, 1 mM Na3VO4, 4 mM sodium pyrophosphate, 10 mM EDTA, 1 mM phenylmethylsulfonyl fluoride, 10 mM NaF, and complete protease inhibitor cocktail (Roche Applied Sciences, Indianapolis, Ind.)). After centrifugation of samples at 17,000×g for 5 minutes at 4° C., supernatants were boiled with Laemmli sample buffer for 5 minutes and proteins (50 μg total protein) were resolved by 10% SDS-PAGE, transferred to nitrocellulose membranes, and immunoblotted using antibodies against eNOS (Transduction Laboratories), phospho-eNOS ([…]), Akt, phospho-Akt ([…]), AMPK, phospho-AMPK ([…]), Src ([…]) (Cell Signaling Technology), VCAM-1 (Santa Cruz, Calif.) or β-actin (Sigma) according to standard methods. Immunoblots were quantified by scanning densitometry (GE Healthcare).
(A western blot detects proteins with antibodies after separation by electrophoresis.)

Assay [3] concerns VCAM-1 expression in BAEC. The assay is described as follows: TNF-α-stimulated VCAM-1 expression by immunoblotting. The settings on record: 5 hours. It counts as cell-based, bovine. How it is done: FIG. 5A is a digital image showing vascular cell adhesion molecule-1 (VCAM-1) expression by immunoblotting. BAECs were serum-starved overnight and then treated without or with TNF-α (10 ng/ml, 5 hours). In some groups, cells were pre-treated with hesperetin (10 μM, 1 hour) prior to treatment with TNF-α. Cell lysates were immunoblotted using antibodies against VCAM-1 or β-actin. Representative immunoblots are shown for experiments that were repeated independently four times. BAECs were grown in 60 mm dishes, serum-starved overnight, and then treated with hesperetin (10 μM) for varying durations or for 10 minutes at different concentrations. In some experiments, Wortmannin (100 nM), or Compound C (5 μM) was added to cells 1 hour before treating with hesperetin. Cell lysates were prepared using 120 μl of lysis buffer (100 mM NaCl, 20 mM Hepes, pH 7.9, 1% Triton X-100, 1 mM Na3VO4, 4 mM sodium pyrophosphate, 10 mM EDTA, 1 mM phenylmethylsulfonyl fluoride, 10 mM NaF, and complete protease inhibitor cocktail (Roche Applied Sciences, Indianapolis, Ind.)). […] Immunoblots were quantified by scanning densitometry (GE Healthcare).

The subject of assay [4] is bovine aortic endothelial cells (BAEC). The assay is described as follows: Measurement of H2O2/ROS production (CM-H2DCF-DA fluorescence). Format: cell-based. The settings on record: for production of ROS in BAEC: 10 μM, 10 minutes. How it is done:
Briefly, BAECs were plated on chamber slides and incubated overnight in media free of phenol red, serum, and growth factors. Cells were then washed with Dulbecco's phosphate buffered saline containing calcium and magnesium (DPBS) before each experiment. Cells were loaded with CM-H2DCF-DA (5 μM, 20 minutes, 37° C.) and then washed to remove excess CM-H2DCF-DA. Cells were then treated with H2O2, hesperetin, or naringenin as indicated in the legends to figures followed by washing three times with DPBS. Some groups of cells were pre-treated with N-acetylcysteine (NAC) (10 mM, 2 hours). Cells were then visualized and images were captured as described for measurement of NO production.

Assay [5] shares this test system. The assay is described as follows: Evaluation of NO production in fixed cells (DAF-2 DA fluorescence). It counts as cell-based. As to conditions: for NO production in response to hesperetin after inhibitor pre-treatment: 10 min; for NO production in response to hesperetin after inhibitor pre-treatment / NO production in response to insulin after inhibitor pre-treatment: inhibitor added 30 min before DAF-2 DA loading; for NO production in response to insulin after inhibitor pre-treatment: insulin 100 nM, 5 min. The method, then: Bovine aortic endothelial cells (BAEC) in primary culture (Cell Applications, San Diego, Calif.) were grown in EBM (Endothelial Basal Medium) containing EGM-MV supplements (Endothelial Growth Medium-Micro Vascular; Cambrex, Walkersville, Md.) and used between passages 3 and 5 as previously described (Formoso et al., Mol Endocrinol, 20:1153-63, 2006). […] Biol. Chem. 282:13736-45, 2007; Formoso et al., Mol. Endocrinol. 20:1153-63, 2006). Briefly, BAECs were grown to 95% confluence in Lab-Tek™ chamber slides (Rochester, N.Y.) and then serum-starved overnight in phenol red-free EBM supplemented with L-arginine (100 μM). BAECs were loaded with DAF-2 DA (3 μM) for 20 minutes at 37° C. […] After loading with DAF-2 DA for 20 minutes, cells were washed with EBM at 37° C. and kept in the dark. Next, BAECs were treated with insulin (100 nM, 5 minutes), lysophosphatidic acid (LPA; 5 μM, 5 minutes), or hesperetin (10 μM, 10 minutes; Sigma). After treatment, cells were fixed in 4% paraformaldehyde (vol/vol) for 5 minutes at 4° C. Fixed cells were visualized using an Olympus IX81 inverted microscope with attached CCD camera (Retiga Exi, Burnaby, BC, Canada) using appropriate filters with a peak excitation wavelength of 480 nm and a peak emission wavelength of 510 nm. Images were captured using IPLab™ Software (Scanalytics, Inc., Fairfax, Va.).

[6] abbreviates: hesperetin 10 μM, 1 hour before TNF-α 10 ng/ml.
Setting [7] is: BAEC serum-starved overnight, hesperetin 10 min at varying concentrations or 10 μM for varying durations.

“Also recorded” adds a separate entry of the source.

Turning to `COc1ccc([C@@H]2CC(=O)c3c(O)cc(O)cc3O2)cc1O` [hesperetin], the “TNF-α-stimulated adhesion of monocytes to endothelial cells after hesperetin pre-treatment” value in assay [1] (setting [6]) is on record as “substantially reduced”. Further, in assay [2] (setting [7]), the “cellular levels of phosphorylated AMPK (Thr172)” value is recorded as “Significant concentration-dependent effects; also recorded: acutely increased; also recorded: Significant time-dependent effects”, the “cellular levels of phosphorylated Akt (Ser473)” value is “Significant concentration-dependent effects; also recorded: acutely increased; also recorded: Significant time-dependent effects” and the “phospho-eNOS (Ser1179)” value is “Significant concentration-dependent effects; also recorded: increased; also recorded: Significant time-dependent effects”. Also, the “TNF-α-stimulated expression of VCAM-1 after hesperetin pre-treatment” value in assay [3] (setting [6]) is given as “substantially reduced”. In addition, the “production of ROS in BAEC” value in assay [4] is “stimulated”. Further, the “hesperetin-stimulated NO production in BAEC” value in assay [5] (DAF-2 DA, 10 min at varying concentrations or 10 μM for varying durations) was “concentration- and time-dependent increase”. The “time of peak production of NO” value in assay [5] (hesperetin 10 μM, BAEC) is 5 to 10 min.
`CC(=O)N[C@@H](CS)C(=O)O` [N-acetylcysteine, reference compound]: in assay [2] (NAC 10 mM, 2 hours, flavanone 10 μM, 10 min), the “hesperetin and naringenin-stimulated phosphorylation of Src (Tyr418), Akt (Ser473), and eNOS (Ser1179) after NAC pre-treatment” value is listed as “inhibited”. The “production of ROS after NAC pre-treatment” value in assay [4] (NAC 10 mM, 2 hours before loading) is “scavenged”.
For `c1cc(-c2cnn3cc(-c4ccc(OCCN5CCCCC5)cc4)cnc23)ccn1` [Compound C], the “NO production in response to hesperetin after inhibitor pre-treatment” value in assay [5] (hesperetin 10 μM) is reported as “substantially inhibited”.
Regarding TNF-α, in assay [1] (TNF-α 10 ng/ml), the “adhesion of labeled monocytes vs vehicle-treated control cells” value is given as “corresponding increase”. Also, the “expression of VCAM-1 vs vehicle-treated control cells” value in assay [3] (TNF-α 10 ng/ml) was “increased”.
On to `O=C1C[C@@H](c2ccc(O)cc2)Oc2cc(O)cc(O)c21` [naringenin], for which the “production of ROS in BAEC” value in assay [4] is “stimulated”.
`COC(=O)[C@@H](N)CCCNC(=N)N[N+](=O)[O-]` [L-NAME, L-N^G-Nitroarginine methyl ester]: the “NO production in response to hesperetin after inhibitor pre-treatment” value in assay [5] (hesperetin 10 μM) is reported as “blocked”. Besides, in assay [5], the “NO production in response to insulin after inhibitor pre-treatment” value is given as “blocked”.
`CC(C)(C)n1nc(-c2ccc(Cl)cc2)c2c(N)ncnc21` [PP2]: the “hesperetin-stimulated phosphorylation of Src, Akt, and eNOS after PP2 pre-treatment” value in assay [2] (PP2 1 μM, 1 hour, hesperetin 10 μM, 10 min) is reported as “inhibited”. Further, in assay [5] (hesperetin 10 μM), the “NO production in response to hesperetin after inhibitor pre-treatment” value is “inhibited”. In assay [5], the “NO production in response to insulin after inhibitor pre-treatment” value is “failed to inhibit”.

The values are drawn from patent US20130123206A1, “TREATMENT OF METABOLIC SYNDROME AND INSULIN RESISTANCE WITH CITRUS FLAVANONES” (priority 2010, published 2013).
